Test results taken from ChEMBL document CHEMBL1201862, “PubChem BioAssay data set” (2004).
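Where inhibition never reached the appropriate level, the endpoint shown equals the highest concentration tested. Otherwise, values were interpolated linearly from a five-concentration, 48-hour dose response in 96-well plates. Here, GI50 denotes the concentration required for 50% inhibition of growth.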 Activity calls are given as the source filed them. Cut-off read from the data, not from the text of the source: active = GI50 up to about 1.1 µM and inactive = higher.

Assays:
Assay in all cases: inhibition of tumour cell growth, NCI panel, 48 h
[1] = system: SK-MEL-2
[2] = system: OVCAR-3
[3] = system: SK-MEL-28
[4] = system: RPMI-8226
[5] = system: K562
[6] = system: BT-549
[7] = system: OVCAR-5
[8] = system: SK-OV-3
[9] = system: HCT-116
[10] = system: MOLT-4
[11] = system: RXF 393
[12] = system: OVCAR-4
[13] = system: MDA-N
[14] = system: HCC 2998
[15] = system: EKVX
[16] = system: COLO 205
[17] = system: UACC-257
[18] = system: NCI-H23
[19] = system: Hs-578T
[20] = system: SW-620

Row | SMILES | GI50 [1] | GI50 [2] | GI50 [3] | GI50 [4] | GI50 [5] | GI50 [6] | GI50 [7] | GI50 [8] | GI50 [9] | GI50 [10] | GI50 [11] | GI50 [12] | GI50 [13] | GI50 [14] | GI50 [15] | GI50 [16] | GI50 [17] | GI50 [18] | GI50 [19] | GI50 [20]
1 | CO/C=C(/C(=O)OC)c1ccccc1COc1cccc(C(F)(F)F)c1 | 11.6 µM (inactive) | 10.2 µM (inactive) | 22.6 µM (inactive) | 0.408 µM (active) | 3.76 µM (inactive) | 6.28 µM (inactive) | > 100 µM (inactive) | 27.9 µM (inactive) | 2.4 µM (inactive) | 1.01 µM (active) | 11.6 µM (inactive) | 8 µM (inactive) | 2.54 µM (inactive) | 10.8 µM (inactive) | 3.56 µM (inactive) | 6.61 µM (inactive) | 0.676 µM (active) | 2.26 µM (inactive) | 10.3 µM (inactive) | –
2 | CCN(CC)CCn1ncc2c(N)ncnc21 | > 100 µM (inactive) | > 100 µM (inactive) | > 100 µM (inactive) | > 100 µM (inactive) | > 100 µM (inactive) | > 100 µM (inactive) | > 100 µM (inactive) | > 100 µM (inactive) | > 100 µM (inactive) | > 100 µM (inactive) | > 100 µM (inactive) | > 100 µM (inactive) | > 100 µM (inactive) | > 100 µM (inactive) | > 100 µM (inactive) | > 100 µM (inactive) | – | > 100 µM (inactive) | > 100 µM (inactive) | > 100 µM (inactive)
3 | CCCC(=O)Nc1cc(C(=O)N2C[C@@H]3C[C@]34C2=CC(=O)c2[nH]cc(C)c24)n(COC)c1 | 2.38 µM (inactive) | 6.81 µM (inactive) | 7.48 µM (inactive) | 12.2 µM (inactive) | 2.33 µM (inactive) | 8.43 µM (inactive) | 34.4 µM (inactive) | 16.3 µM (inactive) | 7.87 µM (inactive) | 0.807 µM (active) | 1.84 µM (inactive) | 8.02 µM (inactive) | 8.65 µM (inactive) | 3.28 µM (inactive) | 12.6 µM (inactive) | 5.93 µM (inactive) | 9.79 µM (inactive) | 1.56 µM (inactive) | 14.5 µM (inactive) | 1.62 µM (inactive)
4 | Cc1ccc2ccc(O)cc2c1 | 38.1 µM (inactive) | 10.2 µM (inactive) | > 100 µM (inactive) | 27.9 µM (inactive) | 20.2 µM (inactive) | 26.7 µM (inactive) | 55.8 µM (inactive) | 26.9 µM (inactive) | 68.9 µM (inactive) | 22.6 µM (inactive) | 44.9 µM (inactive) | 20.9 µM (inactive) | 20.1 µM (inactive) | 18.2 µM (inactive) | 43.4 µM (inactive) | > 100 µM (inactive) | 64.3 µM (inactive) | 37.8 µM (inactive) | 37.9 µM (inactive) | 37 µM (inactive)
5 | CCOC(=O)Nc1nn[nH]c1Cl | > 100 µM (inactive) | > 100 µM (inactive) | > 100 µM (inactive) | > 100 µM (inactive) | > 100 µM (inactive) | > 100 µM (inactive) | > 100 µM (inactive) | > 100 µM (inactive) | > 100 µM (inactive) | > 100 µM (inactive) | > 100 µM (inactive) | > 100 µM (inactive) | > 100 µM (inactive) | > 100 µM (inactive) | > 100 µM (inactive) | > 100 µM (inactive) | > 100 µM (inactive) | > 100 µM (inactive) | > 100 µM (inactive) | > 100 µM (inactive)
6 | CCC1(CC)C(=O)NN(C(=O)c2ccccc2)C1=O | > 100 µM (inactive) | > 100 µM (inactive) | > 100 µM (inactive) | > 100 µM (inactive) | > 100 µM (inactive) | > 100 µM (inactive) | > 100 µM (inactive) | > 100 µM (inactive) | > 100 µM (inactive) | > 100 µM (inactive) | > 100 µM (inactive) | > 100 µM (inactive) | > 100 µM (inactive) | > 100 µM (inactive) | > 100 µM (inactive) | > 100 µM (inactive) | > 100 µM (inactive) | > 100 µM (inactive) | > 100 µM (inactive) | > 100 µM (inactive)
7 | COc1ccc(NC(=O)CC(=O)n2nc(C)c(/N=N/c3cccc(C)c3)c2C)cc1 | > 100 µM (inactive) | > 100 µM (inactive) | > 100 µM (inactive) | 91.8 µM (inactive) | – | > 100 µM (inactive) | > 100 µM (inactive) | 18.6 µM (inactive) | > 100 µM (inactive) | > 100 µM (inactive) | > 100 µM (inactive) | > 100 µM (inactive) | > 100 µM (inactive) | > 100 µM (inactive) | 31.4 µM (inactive) | > 100 µM (inactive) | > 10 µM (inactive) | > 100 µM (inactive) | > 100 µM (inactive) | > 100 µM (inactive)
8 | Cc1cc(N(CCC#N)CCC#N)ccc1C(/N=N/c1ccc(C(=O)O)cc1)=N\NC(=O)c1ccccc1 | > 100 µM (inactive) | > 10 µM (inactive) | – | > 100 µM (inactive) | 12.7 µM (inactive) | 55.6 µM (inactive) | > 100 µM (inactive) | 49.2 µM (inactive) | 35 µM (inactive) | 47.1 µM (inactive) | 17.7 µM (inactive) | > 100 µM (inactive) | 4.31 µM (inactive) | 17.3 µM (inactive) | > 100 µM (inactive) | 28.5 µM (inactive) | 65.2 µM (inactive) | 17.7 µM (inactive) | 14.4 µM (inactive) | –
9 | N#Cc1c(-c2ccc(Cl)cc2Cl)nc2[nH]nc(S)n2c1=O | > 100 µM (inactive) | – | > 100 µM (inactive) | > 100 µM (inactive) | – | > 100 µM (inactive) | > 100 µM (inactive) | > 100 µM (inactive) | > 100 µM (inactive) | > 100 µM (inactive) | > 100 µM (inactive) | > 100 µM (inactive) | > 100 µM (inactive) | > 100 µM (inactive) | > 100 µM (inactive) | > 100 µM (inactive) | > 100 µM (inactive) | > 100 µM (inactive) | > 100 µM (inactive) | > 100 µM (inactive)
10 | Cc1c(C)c(C)c(-n2c(=O)n(C)c(=O)n2C(C)(C)C)c(C)c1C | > 100 µM (inactive) | > 100 µM (inactive) | > 100 µM (inactive) | 89.5 µM (inactive) | 81.1 µM (inactive) | > 100 µM (inactive) | > 100 µM (inactive) | > 100 µM (inactive) | > 100 µM (inactive) | > 100 µM (inactive) | > 100 µM (inactive) | > 100 µM (inactive) | > 100 µM (inactive) | > 100 µM (inactive) | – | > 100 µM (inactive) | > 100 µM (inactive) | > 100 µM (inactive) | > 100 µM (inactive) | > 100 µM (inactive)
11 | O=C1C2CC=CCC2C(=O)N1n1c(-c2ccccc2)n[nH]c1=O (stereo not drawn) | > 100 µM (inactive) | > 100 µM (inactive) | – | > 100 µM (inactive) | > 100 µM (inactive) | > 100 µM (inactive) | > 100 µM (inactive) | > 100 µM (inactive) | > 100 µM (inactive) | > 100 µM (inactive) | > 100 µM (inactive) | > 100 µM (inactive) | > 100 µM (inactive) | > 100 µM (inactive) | > 100 µM (inactive) | > 100 µM (inactive) | > 100 µM (inactive) | > 100 µM (inactive) | > 100 µM (inactive) | > 100 µM (inactive)
12 | O=C(Cn1c2ccc(Br)cc2c2nc3ccccc3nc21)NC1CCCCC1 | > 100 µM (inactive) | > 100 µM (inactive) | 81.1 µM (inactive) | > 100 µM (inactive) | > 100 µM (inactive) | > 100 µM (inactive) | > 100 µM (inactive) | > 100 µM (inactive) | > 100 µM (inactive) | > 100 µM (inactive) | > 100 µM (inactive) | > 100 µM (inactive) | > 100 µM (inactive) | > 100 µM (inactive) | – | > 100 µM (inactive) | > 100 µM (inactive) | > 100 µM (inactive) | 43.3 µM (inactive) | > 100 µM (inactive)
13 | COc1cc2c(cc1C)NC(=O)/C2=C/c1c(Cl)[nH]c2ccccc12 | 2.8 µM (inactive) | 2.26 µM (inactive) | 7 µM (inactive) | 4.6 µM (inactive) | 3.83 µM (inactive) | 2.74 µM (inactive) | 7.87 µM (inactive) | 1.47 µM (inactive) | 4.89 µM (inactive) | 4.05 µM (inactive) | 8.07 µM (inactive) | – | 1.63 µM (inactive) | 3.89 µM (inactive) | 6.68 µM (inactive) | 2.92 µM (inactive) | 10.7 µM (inactive) | 10.1 µM (inactive) | 3.26 µM (inactive) | 4.56 µM (inactive)
14 | CCOC(=O)NC(Nc1cccc(F)c1)(C(F)(F)F)C(F)(F)F | > 100 µM (inactive) | > 100 µM (inactive) | > 100 µM (inactive) | > 100 µM (inactive) | 48.4 µM (inactive) | > 100 µM (inactive) | > 100 µM (inactive) | > 100 µM (inactive) | > 100 µM (inactive) | > 100 µM (inactive) | > 100 µM (inactive) | – | > 100 µM (inactive) | > 100 µM (inactive) | > 100 µM (inactive) | > 100 µM (inactive) | > 100 µM (inactive) | > 100 µM (inactive) | > 100 µM (inactive) | > 100 µM (inactive)
